Results published in patent publication US20250101009A1, “Compounds, Compositions and Methods for Treatment of Age-Related Ocular Disorders” (priority 2022, published 2025).

Key:
acetylcholinesterase = molecular target: T1, acetylcholinesterase (Homo sapiens, UniProt P22303); test: Hydrolysis study in vitro with acetylcholinesterase (HPLC); assay type: in vitro ADME; details: for assay of compound remaining during enzymatic hydrolysis: acetylcholinesterase 2.0 mg/ml, simulated tear pH 7.4, 37.5° C.
T1 construct: purchased
Procedure: The commercial esterase was dissolved in simulated tear (pH 7.4). Dissolving an appropriate amount of the compounds of the invention in solvent. The stock solutions were kept in screw-capped vials at 4° C. The reaction was initiated by adding stock solution of the prodrug to preheated esterase solution in a screw-capped vial at 37.5° C. The solution was kept in a water bath at 37.5° C. and at appropriate time intervals. 20 mL aliquot was taken and, after filtration using membrane syringe filter, analyzed immediately by HPLC.
The tear fluid was prepared by dissolving sodium chloride (0.67%, w/v), sodium bicarbonate (0.2% w/v) and calcium chloride dihydrate (0.008% w/v) in water and pH was adjusted to 7.4.
(§1) The acetylcholinesterase was dissolved in simulated tear (pH 7.4) to give a concentration of 2.0 mg/ml. Dissolving the appropriate number of compound 1 in pH 7.0 buffer solution to obtain a concentration of […]. The stock solutions were kept in screw-capped vials at 4° C. The reaction was initiated by adding 20 uL of a stock solution of the compound 1 in pH 7.0 buffer solution to 1 ml of preheated esterase solution in a screw-capped vial at 37.5° C., for a total of 10 identical reaction solutions. The reaction solutions were kept in a water bath at 37.5° C. and at 20 min intervals an aliquot was taken and, after filtration using membrane syringe filter, analyzed immediately by HPLC.
as §1, with “compound 2” for “compound 1”, “20 μL” for “20 uL”, “of 11” for “of 10”
as §1, with “compound 3” for “compound 1”, “20 μL” for “20 uL”, “1 mL” for “1 ml”, “of 12” for “of 10”

rabbit pupil = test: Miotic effect in rabbits (pupil diameter); assay type: in vivo, male New Zealand White rabbits
Procedure: The ocular activity evaluation based on the miotic effect in rabbits
The pupil size was determined for several compounds in male New Zealand White rabbits. Pilocarpine hydrochloride (Vuity™) was used as positive control. The pupillometer was placed in the eye socket of the rabbit, and the camera was taken 0 min before and 5 min, 10 min, 15 min, 30 min, 45 min and 1 h after dosing. For the latter picture, take three photos at each time point. After the experiment, the pictures were sorted out to observe the pupil change trend after dosing. This method can be used to evaluate whether the miotic agent moiety in the compounds of the invention can constrict the rabbit's pupil.
Under a constant light source (light intensity 40 Lux), the rabbits were fixed in the rabbit box without anesthesia. Before the experiment, the pupil diameter (mm) before drug administration was measured with a pupil measuring ruler and photographed. […] The time of administration was recorded, and the pupil diameter was measured with a pupillometer and photographed with Canon EOS M6 Mark II (SLR) after 5 min, 10 min, 15 min, 30 min, 45 min, 1 h, 2 h, 3 h, 4 h and 5 h, respectively. […]

[1] = assay decreased more with increasing time

T1 sequence (P22303 32-614, species assumed): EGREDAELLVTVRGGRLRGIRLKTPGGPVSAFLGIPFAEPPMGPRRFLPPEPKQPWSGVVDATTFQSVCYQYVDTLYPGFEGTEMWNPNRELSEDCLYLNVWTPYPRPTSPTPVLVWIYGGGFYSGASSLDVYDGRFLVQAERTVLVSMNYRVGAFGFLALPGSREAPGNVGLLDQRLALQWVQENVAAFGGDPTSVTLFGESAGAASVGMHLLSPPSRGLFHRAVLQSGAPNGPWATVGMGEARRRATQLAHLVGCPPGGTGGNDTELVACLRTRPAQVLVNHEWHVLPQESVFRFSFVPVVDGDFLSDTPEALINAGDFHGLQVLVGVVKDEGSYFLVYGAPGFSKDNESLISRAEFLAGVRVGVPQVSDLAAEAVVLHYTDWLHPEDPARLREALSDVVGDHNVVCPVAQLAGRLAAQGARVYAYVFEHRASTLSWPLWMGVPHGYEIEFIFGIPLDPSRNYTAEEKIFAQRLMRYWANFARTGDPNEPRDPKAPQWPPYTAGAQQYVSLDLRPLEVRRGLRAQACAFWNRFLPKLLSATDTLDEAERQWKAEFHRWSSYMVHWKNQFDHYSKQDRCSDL

CC[C@@H]1C(=O)OC[C@@H]1Cc1c[n+](COC(=O)CCCC[C@@H]2CCSS2)cn1C [Compound 1, 3-(((5-((R)-1,2-dithiolan-3-yl)pentanoyl)oxy)methyl)-5-(((3R,4S)-4-ethyl-5-oxotetrahydrofuran-3-yl)methyl)-1-methyl-1H-imidazol-3-ium chloride]
assay of compound remaining during enzymatic hydrolysis (acetylcholinesterase; 0 min): 70.29%
assay of compound remaining during enzymatic hydrolysis (acetylcholinesterase; 20 min): 56.17%
assay of compound remaining during enzymatic hydrolysis (acetylcholinesterase; 40 min): 34.03%
assay of compound remaining during enzymatic hydrolysis (acetylcholinesterase; 60 min): 30.13%
assay of compound remaining during enzymatic hydrolysis (acetylcholinesterase; 80 min): 19.93%
assay of compound remaining during enzymatic hydrolysis (acetylcholinesterase; 100 min): 17.19%
assay of compound remaining during enzymatic hydrolysis (acetylcholinesterase; 120 min): 15.06%
assay of compound remaining during enzymatic hydrolysis (acetylcholinesterase; 140 min): 11.77%
assay of compound remaining during enzymatic hydrolysis (acetylcholinesterase; 160 min): 8.45%
assay of compound remaining during enzymatic hydrolysis (acetylcholinesterase; 180 min): 6.94%
assay of compound remaining during enzymatic hydrolysis (acetylcholinesterase; 200 min): 5.05%
hydrolysis by acetylcholinesterase (in words) (acetylcholinesterase; after 200 minutes): hydrolyzed by acetylcholinesterase almost completely
rabbit pupil under treatment (recorded images) (rabbit pupil): shrinking
miotic effect in rabbits versus positive control (rabbit pupil; 1.25%, 20 μL/eye topical, compared with Vuity 1.25%): comparable to the positive control drug

CC[C@@H]1C(=O)OC[C@@H]1Cc1c[n+](CCOC(=O)CCCC[C@@H]2CCSS2)cn1C [Compound 2, 3-(2-((5-((R)-1,2-dithiolan-3-yl)pentanoyl)oxy)ethyl)-5-(((3R,4S)-4-ethyl-5-oxotetrahydrofuran-3-yl)methyl)-1-methyl-1H-imidazol-3-ium chloride]
assay of compound remaining during enzymatic hydrolysis (acetylcholinesterase; 0 min): 100.00%
assay of compound remaining during enzymatic hydrolysis (acetylcholinesterase; 20 min): 95.69%
assay of compound remaining during enzymatic hydrolysis (acetylcholinesterase; 40 min): 88.08%
assay of compound remaining during enzymatic hydrolysis (acetylcholinesterase; 60 min): 86.47%
assay of compound remaining during enzymatic hydrolysis (acetylcholinesterase; 80 min): 80.61%
assay of compound remaining during enzymatic hydrolysis (acetylcholinesterase; 100 min): 77.56%
assay of compound remaining during enzymatic hydrolysis (acetylcholinesterase; 120 min): 75.40%
assay of compound remaining during enzymatic hydrolysis (acetylcholinesterase; 140 min): 72.81%
assay of compound remaining during enzymatic hydrolysis (acetylcholinesterase; 160 min): 68.28%
assay of compound remaining during enzymatic hydrolysis (acetylcholinesterase; 180 min): 65.90%
assay of compound remaining during enzymatic hydrolysis (acetylcholinesterase; 200 min): 63.68%
assay of compound remaining during enzymatic hydrolysis (acetylcholinesterase; 220 min): 60.88%
hydrolysis by acetylcholinesterase (in words) (acetylcholinesterase; [1]): hydrolyzed by acetylcholinesterase

CC[C@@H]1C(=O)OC[C@@H]1Cc1c[n+](CCOCCOCCOC(=O)CCCC[C@@H]2CCSS2)cn1C [Compound 3, 3-(2-(2-(2-((5-((R)-1,2-dithiolan-3-yl)pentanoyl)oxy)ethoxy)ethoxy)ethyl)-5-(((3R,4S)-4-ethyl-5-oxotetrahydrofuran-3-yl)methyl)-1-methyl-1H-imidazol-3-ium]
assay of compound remaining during enzymatic hydrolysis (acetylcholinesterase; 0 min): 95.40%
assay of compound remaining during enzymatic hydrolysis (acetylcholinesterase; 20 min): 88.83%
assay of compound remaining during enzymatic hydrolysis (acetylcholinesterase; 40 min): 88.26%
assay of compound remaining during enzymatic hydrolysis (acetylcholinesterase; 60 min): 79.40%
assay of compound remaining during enzymatic hydrolysis (acetylcholinesterase; 80 min): 75.30%
assay of compound remaining during enzymatic hydrolysis (acetylcholinesterase; 100 min): 70.87%
assay of compound remaining during enzymatic hydrolysis (acetylcholinesterase; 120 min): 68.62%
assay of compound remaining during enzymatic hydrolysis (acetylcholinesterase; 140 min): 63.48%
assay of compound remaining during enzymatic hydrolysis (acetylcholinesterase; 160 min): 62.92%
assay of compound remaining during enzymatic hydrolysis (acetylcholinesterase; 180 min): 59.60%
assay of compound remaining during enzymatic hydrolysis (acetylcholinesterase; 200 min): 54.50%
assay of compound remaining during enzymatic hydrolysis (acetylcholinesterase; 220 min): 55.89%
assay of compound remaining during enzymatic hydrolysis (acetylcholinesterase; 240 min): 51.61%
hydrolysis by acetylcholinesterase (in words) (acetylcholinesterase; [1]): hydrolyzed by acetylcholinesterase
